This is an account of results in patent US7488732B2, “2-substituted pyrimidines” (BASF Aktiengesellschaft, priority 2003, dated 2009).

One experiment concerns Botrytis cinerea. Put plainly: Activity against gray mold on capsicum leaves caused by Botrytis cinerea, protective application. Conditions: 250 ppm, protective spray on capsicum seedlings, rated after 5 days; untreated control 90% infection. It is filed as in vivo. How it is done:
The active compounds were prepared as a stock solution with 0.25% by weight of active compound in acetone or DMSO. 1% by weight of the emulsifier Uniperol® EL (wetting agent having emulsifying and dispersing action based on ethoxylated alkylphenols) was added to this solution, and the solution was diluted with water to the desired concentration. 2. Activity against gray mold on capsicum leaves caused by Botrytis cinerea, protective application Capsicum seedlings of the cultivar “Neusiedler Ideal Elite” were, after 4-5 leaves had fully developed, sprayed to runoff point with an aqueous suspension of the active compound concentration given below. The next day, the treated plants were inoculated with a spore suspension of Botrytis cinerea comprising 1.7×10^6 spores/ml in a 2% aqueous biomalt solution. The test plants were subsequently placed in a climatized chamber at 22 to 24° C. and high atmospheric humidity. After 5 days, the extent of the fungal infection on the leaves could be determined visually in %.

A further experiment relates to Sphaerotheca fuliginea. As to the kind of experiment: Activity against mildew on cucumber leaves caused by Sphaerotheca fuliginea, protective application. Conditions: 250 ppm, protective spray on cucumber seedlings, rated after 7 days; untreated control 90% infection. Format: in vivo. How it is done:
The active compounds were prepared as a stock solution with 0.25% by weight of active compound in acetone or DMSO. 1% by weight of the emulsifier Uniperol® EL (wetting agent having emulsifying and dispersing action based on ethoxylated alkylphenols) was added to this solution, and the solution was diluted with water to the desired concentration. 3. Activity against mildew on cucumber leaves caused by Sphaerotheca fuliginea, protective application Leaves of potted cucumber seedlings of the cultivar “Chinese snake” were, at the cotyledon stage, sprayed to runoff point with an aqueous suspension of the active compound concentration given below. 20 hours after the spray coating had dried on, the plants were inoculated with an aqueous spore suspension of mildew of cucumber (Sphaerotheca fuliginea). The plants were then cultivated in a greenhouse at temperatures between 20 and 24° C. and 60 to 80% relative atmospheric humidity for 7 days. The extend of the mildew development was then determined visually in % infection of the coltyledon area.

`CCC(C)Cc1nc(C#N)nc(C)c1-c1c(F)cc(F)cc1F` (centres unmarked) [I-4, 2-Cyano-4-methyl-5-(2,4,6-trifluorophenyl)-6-(2-methylbutyl)pyrimidine]: in the experiment on Botrytis cinerea, the “infection (gray mold on leaves, determined visually in %)” value is recorded as “no infection”. The “infection (mildew, determined visually in % infection of the cotyledon area)” value in the experiment with Sphaerotheca fuliginea was “no infection”.
